In patent US20260284214A1, “EXATECAN DERIVATIVE AND ANTIBODY-DRUG CONJUGATE THEREOF” (priority 2023, published 2026):
Like-named read-outs stand apart in the source and are kept apart here. Marks after values point to notes of the source that are not given here.

Experiments:
BxPC-3 cells = assay: Cell inhibitory activity experiment of cytotoxic drug (CellTiter-Glo, 72 hours); format: cell-based, human
Description: (§1) Human pancreatic adenocarcinoma cells BxPC-3 (ATCC, article number: CRL-1687) and human pharyngeal squamous cell carcinoma cells FaDu (ATCC, article number: HTB-43) were washed with PBS, then the cells were digested with 0.25% Trypsin-EDTA trypsin for about 3 minutes, and the digestion was terminated with a complete cell culture medium. The cells were centrifuged at 1000 rpm for 5 minutes, the supernatant was discarded, and the cells were resuspended with a complete cell culture medium, counted by a cell counter, and adjusted to a required density. Each well was added with 50 μL of the cell suspension according to 3000 cells per well, and the cell plate was placed into a 5% CO2 cell incubator at 37° C. to incubate the cells for 12-16 hours.
(§2) The cell plate was taken out of the incubator to observe a cell adhesion state, and after cell adhesion, each well was added with 50 μL of the sample (starting from 10 μM, diluted 5 times, 9 concentrations), shaken gently, and then placed into an incubator to incubate the cells for 72 hours. Each well was added with a Cell Titer-GLO™ (Promega, article number: G7572) working solution according to 100 μL/well and shaken gently to lyse the cells, and the plate was read on a microplate reader.
(§3) Data analysis: a graph was made by GraphPad Prism 7.0 software with a Log value of a sample concentration as an abscissa and Cytotoxicity % as an ordinate, and data were subjected to Nonlinear regression (curve fit) analysis to obtain an IC50 value of each compound.

FaDu cells = assay: as above; format: cell-based, human
Description: as §1, §2, §3

[1] = test system: KPL-4 (human breast cancer cells); assay: Cell-proliferation inhibitory activity (CellTiter-Glo, 3 days); format: cell-based; settings: KPL-4 cells
Description: (§4) The experiment was intended to detect in-vitro inhibitory activities of the compounds of the present disclosure on NCI-N87 (human gastric cancer cells), KPL-4 (human breast cancer cells) or MDA-MB-468 (human breast cancer cells).
(§5) Human gastric cancer cells NCI-N87 (ATCC, article number: CRL-5822), human breast cancer cells MDA-MB-468 (Cell Bank of the Committee on Type Culture Collection, Chinese Academy of Sciences, article number: TCHu136) and human breast cancer cells KPL-4 (Nanjing Cobioer Biosciences Co., Ltd., article number: CBP60379) were washed with PBS, then the cells were digested with 0.25% Trypsin-EDTA trypsin for about 3-10 minutes, and the digestion was terminated with a complete cell culture medium. The cells were centrifuged at 1000 rpm for 5 minutes, the supernatant was discarded, and the cells were resuspended with a complete cell culture medium, counted by a cell counter, and adjusted to a required density. Each well was added with 90.0 μL of the cell suspension according to 3000 cells per well, and the cell plate was placed into a 5% CO2 cell incubator at 37° C. to incubate the cells overnight.
(§6) In the experiment, a DMSO control group, a positive control group and a test sample group were provided respectively, and the compound Dxd was used as a positive control compound. The cell plate was taken out of the incubator to observe a cell adhesion state, and after cell adhesion, each well was added with 10.00 μL of the sample (starting from a final concentration 10 μM, diluted 5 times, 9 concentrations), shaken gently, and then placed into an incubator to incubate the cells.
(§7) After incubation for 3 days, each well was added with a CellTiter-Glo™ (Promega, article number: G7572/G7571) working solution according to 100.0 μL/well and oscillated by a constant-temperature oscillator to lyse the cells, and 10 minutes later, the plate was read on a microplate reader.
(§8) A calculation formula of a cell-proliferation inhibition rate was: cell-proliferation inhibition rate=(1−RLUtest sample well/RLUDMSO control well)×100%.
(§9) Data analysis: a graph was made by GraphPad Prism 8.0 software with a Log value of a sample concentration as an abscissa and Inhibition % as an ordinate, and data were subjected to Nonlinear regression (curve fit) analysis to obtain an IC50 value of each test sample.

[2] = test system: MDA-MB-468 (human breast cancer cells); assay: as above; format: cell-based; settings: MDA-MB-468 cells
Description: as §4, §5, §6, §7, §8, §9

[3] = test system: NCI-N87 (human gastric cancer cells); assay: as above; format: cell-based
Description: as §4, §5, §6, §7, §8, §9

SD rats = assay: Toxicity comparison after repeated administration to SD rats for 7 days (hematology); format: in vivo; settings: 0.1 mg/kg iv for 7 consecutive days, end of study
Description: SD rats were taken as test animals to study toxic reactions after intravenous injection of the compounds of the present disclosure to male and female SD rats at a dosage of 0.1 mg/kg for 7 consecutive days.
• Species: male and female SD rats (5 female rats and 5 male rats/group) • Grade: SPF grade • Weight: ♂ 252.0-287.4 g and ♀ 185.7-224.3 g • Age: 8-12 weeks • Source: Zhejiang Vital River Laboratory Animal Technology Co., Ltd.
Male and female SD rats were injected with the test sample solution, and Compound 2 of the example and the Dxd were given in a dosage of 0.1 mg/kg and a dosage volume of 10 mL/kg.
Preparation of test sample solution: the test sample was dissolved with a solvent (5% DMSO+95% Solutol HS-15 in water).
About 0.2 mL of blood was collected from the jugular sinus of the animals into an anticoagulant tube containing an anticoagulant (EDTA-K2) on D3 after administration, and all to-be-dissected animals were fasted for about 12 hours on the eve of D8 before dissection. Dying animals were euthanized, about 2 mL of blood was collected from abdominal aorta into an anticoagulant tube containing an anticoagulant (EDTA-K2) at the time of dissection, and hematological indexes were detected by a Sysmex XN-1000 hemocytometer. Specific detection indexes were as follows.

Row | SMILES | #MONO, change compared with the control group (SD rats; ♀ SD rats) | #RETIC, change compared with the control group (SD rats; ♀ SD rats) | HCT, change compared with the control group (SD rats; ♀ SD rats) | HGB, change compared with the control group (SD rats; ♀ SD rats) | RBC, change compared with the control group (SD rats; ♀ SD rats) | #EOS, change compared with the control group (SD rats; ♂ SD rats) | #MONO, change compared with the control group (SD rats; ♂ SD rats) | #NEUT, change compared with the control group (SD rats; ♂ SD rats) | #RETIC, change compared with the control group (SD rats; ♂ SD rats) | IC50 ([1]; Homo sapiens, KPL4, 72 h) | IC50 ([2]; Homo sapiens, 72 h) | IC50 ([3]; Homo sapiens, 72 h) | also measured
1 | C#CCN(CCO)C(=O)N[C@H]1CCc2c(C)c(F)cc3nc4c(c1c23)Cn1c-4cc2c(c1=O)COC(=O)[C@]2(O)CC [Example 2] | −54.1%** | −86.4%** | −12.0%** | −10.7%** | −10.9%** | −71.4%** | −68.3%** | −72.2%** | −87.3%** | – | – | – | IC50 (BxPC-3 cells): 0.96 nM; IC50 (FaDu cells): 1.49 nM; IC50 [1]: 29.6 nM; IC50 [2]: 2.41 nM; IC50 [3]: 11 nM
2 | CC[C@@]1(O)C(=O)OCc2c1cc1n(c2=O)Cc2c-1nc1cc(F)c(C)c3c1c2[C@@H](NC(=O)CO)CC3 [Dxd] | −71.3%** | −96.9%** | −15.8%** | −12.7%** | −13.4%** | −70.2%* | −77.2%** | −66.9%** | −95.5%* | 32.3 nM | 2.71 nM | 22.6 nM | #EOS, change compared with the control group (SD rats; ♀ SD rats): −84.44%**; #LUC, change compared with the control group (SD rats; ♀ SD rats): −66.9%**; #NEUT, change compared with the control group (SD rats; ♀ SD rats): −66.1%*; MCHC, change compared with the control group (SD rats; ♀ SD rats): 3.6%**; WBC, change compared with the control group (SD rats; ♀ SD rats): −47.6%*; #BASO, change compared with the control group (SD rats; ♂ SD rats): −82.1%*; HCT, change compared with the control group (SD rats; ♂ SD rats): −15.7%**; HGB, change compared with the control group (SD rats; ♂ SD rats): −12.8%**; MCHC, change compared with the control group (SD rats; ♂ SD rats): 3.2%**; RBC, change compared with the control group (SD rats; ♂ SD rats): −15.3%**
3 | C=CCN(CCO)C(=O)N[C@H]1CCc2c(C)c(F)cc3nc4c(c1c23)Cn1c-4cc2c(c1=O)COC(=O)[C@]2(O)CC [Example 3, 1-allyl-3-((1S,9S)-9-ethyl-5-fluoro-9-hydroxy-4-methyl-10,13-dioxo-2,3,9,10,13,15-hexahydro-1H,12H-benzo[de]pyrano[3′,4′:6,7]indolizino[1,2-b]quinolin-1-yl)-1-(2-hydroxyethyl)urea] | – | – | – | – | – | – | – | – | – | 8.82 nM | 0.99 nM | 6.39 nM | IC50 (BxPC-3 cells; Homo sapiens): 0.76 nM; IC50 (FaDu cells; Homo sapiens): 1.09 nM
